Experiments:
Type in all cases: physicochemical
[1] = Preparation of paramagnetic oil with paraffin (mineral) oil; settings: typically 10-30 wt%, as co-component
Protocol: The complex 3 (molecules of structure (I)) is dissolved in the minimum amount of dichloromethane, so to have a homogeneous solution, after that a fatty alcohol (e.g. isofol® 12) is added (typically 10-40 wt%), and the resultant mixture rotary evaporated under high vacuum to completely eliminate the volatile dichloromethane, resulting in the target homogeneous transparent paramagnetic oil.
The composition is prepared according to example 5.1 but using paraffin (mineral) oil (typically 10-30 wt%) as co-component instead of the fatty alcohol.
This method is particularly suitable when using complexes with long chains (preferably more than 8 carbon atoms).

[2] = Verdet coefficient measurement (magneto-optic, Faraday effect); settings: 1 M aqueous solution (control)
Protocol: The composition is prepared according to example 5.1 but using isofol 12 to obtain a weight fraction of 23 % w/w of isofol 12, where Tb^3+ is used as the paramagnetic ion in structure (I). The Verdet coefficient was determined to be 17.1 rad T^-1 m^-1 at 410 nm wavelength, and 8.0 rad T^-1 m^-1 at 600 nm. As a control a 1 M TbCl3 aqueous solution was measured using the same method resulting in a Verdet coefficient of 14.1 rad T^-1 m^-1 at 410 nm wavelength, and 4.9 rad T^-1 m^-1 at 600 nm in agreement with literature.

[3] = Magnetic susceptibility by the Evans method (1H NMR shift of residual CDCl3 proton); settings: solution in CDCl3; for χmass: mass susceptibility; for χmol: molar susceptibility, χmol = MW*χmass
From the text: For the prepared molecules of structure (I) in table 2 below, the paramagnetic properties have been evaluated by the Evans method [D.F. Evans, J. Chem. Soc. 2003 (1959)]. This is based on nuclear magnetic measurements (NMR), and relies on the fact that the chemical shift (position) of the ^1H NMR signals of a molecule depend on the bulk susceptibility of the medium. In particular, the resonance line of the residual proton of CDCl3 (i.e. the NMR solvent) was used as a reference, by comparing its chemical shift for the pure CDCl3 and for a solution containing the molecules of structure (I).
As expected the mass susceptibility of the different complexes (molecules of structure (I)) vary depending on mass ratio between the paramagnetic ion (e.g. Ho^3+) and the organic DTPA-ligand (thus, it is smaller for the bigger ligands). […] Magnetism and magnetic materials. Cambridge University Press, 2010]

Row | Molecule | appearance of composition with mineral oil [1] | Verdet coefficient ([2]; 410 nm wavelength) | Verdet coefficient ([2]; 600 nm) | χmass [3] | χmol [3]
1 | Ho-DTPA-(1-octadecanol)2 | homogeneous transparent fluid reacting to magnetic fields |  |  |  | 
2 | [Cl][Tb]([Cl])[Cl] [TbCl3] |  | 14.1 rad T^-1 m^-1 | 4.9 rad T^-1 m^-1 |  | 
3 | Ho-DTPA-(3,7-dimethy-1-octanol)2 |  |  |  | 5.05 (cm^3 g^-1) /10-5 | 0.0422 cm^3 mol^-1
4 | Ho-DTPA-(2-butyl-1-octanol)2 |  |  |  | 4.98 (cm^3 g^-1) /10-5 | 0.0350 cm^3 mol^-1
5 | Ho-DTPA-(hexanol)2 |  |  |  | 6.04 (cm^3 g^-1) /10-5 | 0.0437 cm^3 mol^-1
6 | Ho-DTPA-(2-octyl-1-dodecanol)2 |  |  |  | 3.72 (cm^3 g^-1) /10-5 | 0.0415 cm^3 mol^-1
7 | CC(=O)[O-].CC(=O)[O-].CC(=O)[O-].O.[Ho+3] [Ho(AcO)3 *nH2O, reference compound] |  |  |  | 11.0 (cm^3 g^-1) /10-5 | 0.037 cm^3 mol^-1

Reference: patent EP3514141A1, “MAGNETIC MOLECULES” (Centre National de la Recherche Scientifique, priority 2018, dated 2019)
